{"source": "paper PMC3376186", "about": "(Bioorganic & medicinal chemistry letters, 2012)", "key": {"Rev-erbβ": {"tested_on": "Rev-erbβ", "conditions": "Luminex technology; cited from earlier work"}, "LXRβ": {"tested_on": "LXRβ", "conditions": "reporter-gene assay; reported; cited from earlier work"}, "Rev-erbα [1]": {"biological_target": "T1, Rev-erbα (Homo sapiens, UniProt P20393)", "T1 sequence (P20393 1-614)": "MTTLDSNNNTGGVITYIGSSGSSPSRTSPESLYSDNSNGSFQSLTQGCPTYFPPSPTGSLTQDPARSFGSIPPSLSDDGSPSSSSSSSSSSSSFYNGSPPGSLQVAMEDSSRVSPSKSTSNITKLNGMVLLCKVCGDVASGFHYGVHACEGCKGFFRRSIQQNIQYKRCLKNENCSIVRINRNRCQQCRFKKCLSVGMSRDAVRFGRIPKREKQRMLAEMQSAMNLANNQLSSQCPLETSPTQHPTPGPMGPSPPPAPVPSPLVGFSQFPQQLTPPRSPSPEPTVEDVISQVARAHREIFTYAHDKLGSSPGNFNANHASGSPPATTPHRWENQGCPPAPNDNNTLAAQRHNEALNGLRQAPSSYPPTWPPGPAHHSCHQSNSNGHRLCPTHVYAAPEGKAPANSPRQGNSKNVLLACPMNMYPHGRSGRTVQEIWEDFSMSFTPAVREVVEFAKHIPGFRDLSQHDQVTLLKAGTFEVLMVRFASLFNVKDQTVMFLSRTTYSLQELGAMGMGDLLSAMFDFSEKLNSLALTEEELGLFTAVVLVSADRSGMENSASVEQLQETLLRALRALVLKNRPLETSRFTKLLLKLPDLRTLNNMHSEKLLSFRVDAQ", "conditions": "Luminex technology; cited from earlier work"}, "RORα": {"tested_on": "RORα", "conditions": "same FRET assay; reported; cited from earlier work"}, "[2]": {"experiment": "Mouse plasma and brain exposure after IP dose", "format": "in vivo, C57Bl6 mice"}, "FXR": {"tested_on": "FXR", "conditions": "same FRET assay; reported; cited from earlier work"}, "LRH1": {"tested_on": "LRH1", "conditions": "same FRET assay; reported; cited from earlier work"}, "[3]": {"tested_on": "Rev-erbα-NCoR interaction", "conditions": "read-out: EC50, enhancement of Rev-erbα-NCoR interaction; FRET assay; cited from earlier work"}, "LXRα": {"tested_on": "LXRα", "conditions": "reporter-gene assay; reported; cited from earlier work"}, "SF1": {"tested_on": "SF1", "conditions": "same FRET assay; reported; cited from earlier work"}, "Rev-erbα [4]": {"biological_target": "T1, Rev-erbα", "conditions": "HEK293 cells, Gal4 DBD:REV-ERB LBD α; cited from earlier work"}, "[5]": {"tested_on": "REV-ERB ligand binding domain (LBD) β", "conditions": "HEK293 cells, Gal4 DBD:REV-ERB LBD β; cited from earlier work"}, "Rev-erbα [6]": {"biological_target": "T1, Rev-erbα", "conditions": "circular dichroism analysis; cited from earlier work"}}}
{"compound": "CC(C)(C)OC(=O)CN(Cc1ccc(Cl)cc1)Cc1ccc([N+](=O)[O-])s1", "note": "[Compound 1]", "values": [{"measurement": "interaction of Rev-erbβ with the NCoR peptide", "setting": "Rev-erbβ", "result": "dose-dependently increased"}, {"measurement": "activity on LXRβ", "setting": "LXRβ", "result": "no activity"}, {"measurement": "interaction of Rev-erbα with the NCoR peptide", "setting": "Rev-erbα [1]", "result": "dose-dependently increased"}, {"measurement": "activity on RORα", "setting": "RORα", "result": "no activity"}, {"measurement": "b.p. (brain penetration)", "setting": "[2]; mice, 10 mg/kg IP in 10:10:80 DMSO:Tween:water, t = 2h", "result": 140, "unit": "%"}, {"measurement": "activity on FXR", "setting": "FXR", "result": "no activity"}, {"measurement": "activity on LRH1", "setting": "LRH1", "result": "no activity"}, {"measurement": "EC50", "setting": "[3]", "result": 400, "unit": "nM"}, {"measurement": "activity on LXRα", "setting": "LXRα", "result": "no activity"}, {"measurement": "activity on SF1", "setting": "SF1", "result": "no activity"}]}
{"compound": "CCOC(=O)N1CCC(CN(Cc2ccc(Cl)cc2)Cc2ccc([N+](=O)[O-])s2)C1", "note": "(stereo not drawn) [Compound 12e]", "values": [{"measurement": "[Brain]", "setting": "[2]; mice, 50 mg/kg IP in 15% cremaphor EL, brain levels at 8h", "result": "^d8.7 μM"}, {"measurement": "Rev-erb-dependent repressor activity (LBD α)", "setting": "Rev-erbα [4]", "result": "dose-dependently increased"}, {"measurement": "Rev-erb-dependent repressor activity (LBD β)", "setting": "[5]", "result": "dose-dependently increased"}, {"measurement": "Direct binding to Rev-erbα", "setting": "Rev-erbα [6]", "result": "confirmed"}]}
{"compound": "CS(=O)(=O)N1CCC(CN(Cc2ccc(Cl)cc2)Cc2ccc([N+](=O)[O-])s2)C1", "note": "(stereo not drawn) [Compound 12j]", "values": [{"measurement": "Kp at 2 h", "setting": "[2]; C57Bl6, mouse, brain, ip, 10 mg/kg", "result": 2.42}]}
